A melting point compilation (Tetko et al.; mined from patent text by program, amines drawn as free bases though some values may be those of a salt)

melting point [°C] | SMILES
125 to 130 | COCCc1nc2c(N)nc3ccccc3c2n1CC(C)(C)CNC(=O)Nc1ccccc1
105 | CC(C)Cc1ccc2c(c1)C(CO)c1cc(CC(C)C)ccc1-2
90 to 91 | Cc1ccc(NC(=O)OC(C)(C)C)c(C)c1
107 to 109 | CCCCN(C=Nc1nnnc2c1ncn2C1CC(O)C(CO)O1)CCCC (stereo not given)
110 to 111 | O=C1C(=NOCCO)Oc2ccccc21
74 to 75 | Cc1cc(Cl)cc(Cl)c1OC(=O)c1ccc(CCl)cc1
187 to 188 | Nc1ncc(Sc2ccc(O)cc2)s1
158 to 160 | CN(C)C(=O)C(O)(C(=O)O)c1ccc(Cl)c(Cl)c1 (stereo not given)
29 to 31 | O=C(c1ccccc1)c1ccccc1I
156 to 158 | C=CCOCc1csc2c(=O)c(C(=O)NCc3ccc(Cl)cc3)cn(C)c12
159 to 163 | CC(=O)c1cccc(-c2ccc(OC3SCC(O)C(O)C3O)cn2)c1 (stereo not given)
116 to 118 | CCOC(=O)CCc1cn(-c2ccccc2)nc1O
158 to 160 | CCC(C)(C)N1CCNC(S(=O)(=O)Nc2ccc3[nH]c(C(=O)N4CCN(c5ncccc5NC(C)C)CC4)cc3c2)C1 (stereo not given)
250 to 252 | CCOC(=O)N1CCn2c(nc(-c3ccncn3)cc2=O)C(NC(=O)c2ccccn2)C1 (racemic)
65 to 67 | O=C(OCC(Cl)(Cl)Cl)N1C2CCC1CC(Sc1ccc(F)cc1)C2 (stereo not given)
183 | CNC(=O)c1cccc(NC(=O)CC2CCCCC2)c1
160 to 162 | CS(=O)(=O)Nc1ccc(N)cc1CC1CCCCC1
106 to 107 | COc1cc2c(cc1OCc1ccccc1)CCN(Cc1cccc(OC)c1OC)C2
350 to 355 | Oc1cc(O)c2ccccc2n1
130 to 132 | CCOc1cccc(Cn2ncc3c(N4CCN(C(=O)OC(C)(C)C)CC4)ncnc32)n1
157 to 158 | CCc1nn(CC(=O)O)c(CC)c1Oc1cc(Cl)cc(Cl)c1
166 to 168 | CC(=O)SCC(Cc1ccccc1)C(=O)NC1(C(=O)OCc2ccccc2)CCCCC1 (stereo not given)
195 to 197 | Cc1cnc2c(Cl)cnn2c1-c1cccc(C(F)(F)F)c1
189 to 191 | COc1cc(Nc2c(C#N)cnc3cc(-c4ccc(CN5CCN(C)CC5)cc4)sc23)cc(OC)c1OC

melting point [°C] | SMILES
205 to 207 | CCNc1ncn(Cc2ccc(OC)c(OC3CCCC3)c2)c2nc(C(C)C)nc1-2
317 to 320 | N#Cc1ccc(Cn2c(=O)[nH]c3cc(Cl)cc(Cl)c3c2=O)cc1
134 | COc1ccc(-c2nc(-c3[nH]cc(C)c3C)[nH]c2-c2ccc(OC)cc2)cc1
52 to 54 | O=C(CCC(=O)N1CCCCC1)c1ccccc1
146 to 147 | COc1ccccc1-n1nccc1-c1nn(-c2cccc(C(F)(F)F)c2)ccc1=O
153 | NC(=O)[C@H](Cc1cccnc1)NC(=O)OCc1ccccc1
112 to 114 | CC(=O)OCC1=NC(NC(=O)Nc2cccc(C)c2)C(=O)N(CC(=O)N2CCCCCCC2)c2c(C)cccc21 (stereo not given)
105 to 107 | CCc1cc(C)cc(C)c1NC(=S)NC(C)(C)CC
107 to 108 | CC(C)(C)C(=O)C=C(C(=O)C(C)(C)C)n1cncn1
179 to 182 | Cc1nc2ccccc2n(-c2ccc(CC(=O)O)cc2)c1=O
> 310 | CCNCC1CCN(c2cc3c(cc2Cl)c(=O)c(C(=O)O)cn3C2CC2)C1 (stereo not given)
110 to 113 | CS(=O)(=O)NCC(=O)CCN1CCC(C2c3ncc(Br)cc3CCc3cc(Cl)cc(Cl)c32)CC1 (single isomer, unassigned; (+))
165 to 167 | CCN(CC)CCNc1ccc(NCCNCCO)c2c1C(=O)c1c(O)ccc(O)c1C2=O
140 to 141 | O=C(N1Cc2ccccc2Nc2ccccc21)C(F)(F)F
252 to 255 | O=c1[nH]cnc2ccc(F)cc12
146 to 151 | CCC(C)(C)c1ccc(OC(C)=O)c(C2(OC(C)=O)C(=O)c3ccccc3C2=O)c1
> 350 | O=c1[nH]c2cc(Cl)ccc2c(O)c1-c1ccc2c(c1)OCO2
187 to 188 | CC(=O)OC1CCC2(C)C(CCC3=C4C(=O)CC(C(C)CCCC(F)(C(F)(F)F)C(F)(F)F)C4(C)CCC32)C1 (stereo not given)
180 to 182 | Cc1ccc(-c2ccc(C(=O)Nc3ccc4cc(CN5CCCC5)cnc4c3C)c(F)c2)cc1
103 to 106 | CCC1=CC(=O)C2(C)CCC3c4ccc(OC)cc4CCC3C12 (stereo not given)
153 to 157 | c1ccc2cc3[nH]c(SCc4nccs4)nc3cc2c1
265 to 266 | Clc1ccc2nc(Cl)c3[nH]c4ccccc4c3c2c1
210 to 212 | CC1CCC2(OC1)OC1CC3C4CC(=O)C5CCCCC5(C)C4CCC3(C)C1C2C (stereo not given)
145 | CC(=O)Oc1ccc(-c2c(C)c3ccc(OC(C)=O)cc3oc2=O)c(OC(C)=O)c1

melting point [°C] | SMILES
73 to 75 | C=CCNc1ccc(N(CCO)CCO)cc1[N+](=O)[O-]
265 to 270 | O=C1c2cc3c(cc2-c2c1c(Cl)nc1ccccc21)OCO3
157 to 159 | COC(C(N)=S)c1ccccn1 (stereo not given)
168 to 170 | NC(=O)N1c2ccccc2C=C(Br)c2ccccc21
244 to 246 | COc1cc(-c2cnc3[nH]cc(C(=O)C4(C)CCCC4)c3n2)cc(OC)c1OC
212 to 215 | Cc1cc(C(=O)O)c(N)cc1Cl
158 to 160 | CN1CCN(c2cccc(-n3cnc4cc(C#N)ccc43)c2)CC1
185 to 187 | Cc1cc(OCc2ccccc2)c2cc(C(N)=O)[nH]c2c1
200 to 201 | CC1(C)Oc2ccc(S(=O)(=O)c3ccccc3)cc2[C@@H](N2CCCC2=O)[C@@H]1O (relative stereo)
149 to 151 | CCCc1nn(C)c2c(=O)[nH]c(Cc3ccc(N(CC)C(C)=O)cc3)nc12
248 to 249 | CC(C)(C)OC(=O)NC(CC(=O)Nc1n[nH]c(=S)s1)c1ccccc1 (stereo not given)
133 to 136 | Cc1ccc(S(=O)(=O)NCCc2ccc(C(=O)CBr)cc2)cc1
69 to 70 | CC(C)(C)n1nnc(Cc2ccc(Br)cc2)n1
164 to 166 | COC(=O)c1cc(-n2c(-c3ccccc3)cc3c2CCc2ccccc2-3)ccc1O
157 to 163 | NS(=O)(=O)c1ccccc1-c1cnco1
167 to 168 | CCN(CC)C(=O)Cc1nn(-c2ccccc2)c(=O)c2c1c1ccc(Cl)cc1n2C
180 to 184 | C=C(CN(C)C)C(O)c1ncc2c(c1O)COC2C1CCCCC1 (stereo not given)
149 to 152 | OCCSc1c(Cl)c(Cl)c(SCCO)c(Cl)c1Cl
298 to 300 | COc1cccc2c(=O)cc(C=Cc3ccc(C(=O)O)cc3)oc12
97 to 105 | CN(CCc1ccc(O)cc1)[C@H]1CC[C@H](c2ccccc2)CC1
160 to 162 | CS(=O)(=O)c1ccc(C(CC2CCCC2)c2nc(F)c(C(=O)C3CC3)[nH]2)cc1 (stereo not given)
91 to 93 | CCCSc1c2ccccc2nc2c1c(C)nn2-c1ccccn1
95 to 97 | O=C(Cn1ncc(-c2ccccc2)c1-c1ccccc1)NCCN1CCCCC1
86 to 90 | CC(C)C[C@H](NC(=O)OCC1CCCCC1)C(=O)N[C@@H](C(C)C)[C@@H](O)c1c(-c2ccc(F)cc2)c1=O

melting point [°C] | SMILES
123 to 124 | Cc1oc(-c2ccco2)nc1CCc1ccc(CCCC2OC(=O)NC2=O)cc1 (stereo not given)
63 | N#CN=C(N)NCCCCNC(=O)[C@@H](Cc1ccccc1)NC(=O)CCCC(=O)O
76 | Cc1ccc(Sc2ccc(N)cc2)cc1
244 to 246 | CCC1(CC)c2cc(C(=O)O)c(C(=O)O)cc2C(CC)(CC)N1C(=O)c1ccccc1
148 to 150 | C#Cc1c(C(C)C)nc(-c2ccccc2)n1-c1ccc(F)cc1
50 to 53 | C=CCCCCCCOc1ccc(CCC(NC(C)=O)(C(=O)OCC)C(=O)OCC)cc1
56 | N#Cc1ccccc1COc1cccc(Cl)c1
183 to 185 | O=C(Nc1cc(F)cc2c(=O)cc(C(=O)O)oc12)c1ccc2c(c1)CC(CCCc1ccccc1)O2 (stereo not given)
41 to 43 | C=CCN(CC=C)C(=O)n1cnc(S(=O)CC)n1 (stereo not given)
157 to 158 | COc1cc(OC)c(NC2=Nc3ccccc3CS2)cc1Cl
147 to 148 | COC(=O)CS(=O)(=O)Nc1nc(-c2ncccc2C)cc2cccnc12
148 to 150 | O=CN(O)C(CO)CS(=O)(=O)c1ccccc1Sc1ccc(Cl)cc1 (stereo not given)
168 to 171 | CS(=O)(=O)Nc1cccc(Nc2nc(NCc3ccccc3O)c3nc[nH]c3n2)c1
208 to 210 | CC1c2ccccc2CN1NC(=O)c1ccc(Cl)c(S(N)(=O)=O)c1 (stereo not given)
161 to 162 | COc1cc(C(=O)N2Cc3ccc(C(=O)NCc4ccc(C)cc4C)n3Cc3ccccc32)ccc1-c1ccccc1C
219 to 221 | O=C1COC(C#Cc2cccnc2)(C(F)(F)F)c2cc(Cl)ccc2N1 (stereo not given)
188 | CC(SC1COC(c2ccc(C(=O)Nc3ccc(CC#N)cc3)cc2)OC1)C(O)(Cn1cncn1)c1ccc(F)cc1F (stereo not given)
171 to 172 | CC(C)(C)c1cc(CCc2ccccc2NC(=O)N2CCN(C(=O)c3cccnc3)CC2)cc(C(C)(C)C)c1O
183 | COc1ccc(C(=O)Nc2ccc3ccc(Oc4ccccc4Br)nc3n2)cc1
52 to 53 | CCOC(=O)C(Cc1ccc(F)cc1)C(=O)c1ccc(C(F)(F)F)cc1 (stereo not given)
121 to 125 | CCOC(=O)C1=C(C)NC(c2ncc[nH]2)=NC1c1ccccc1Cl (stereo not given)
101 | O=S(Cc1ccccc1)c1ncc(Br)cn1 (stereo not given)
161 to 163 | CC(C)Oc1nccc(-c2c(-c3ccc(F)cc3)ncn2C2CCC(=O)CC2)n1

SMILES | melting point [°C]
Cc1ccc(Cn2cc(C(=O)C(=O)NC3=CC(=O)OC3)c3ccc(F)cc32)cc1 | 218 to 220
CC(=O)c1nnc2n1-c1sc(Cl)cc1C(c1ccccc1Cl)=NC2 | 89 to 91
ClCc1cnc(Cl)cc1Cl | 55 to 56
CN1C2CCC1CN(c1ccc(Br)nn1)C2 | 118 to 120
N#Cc1nn(-c2c(Cl)cc(C(F)(F)F)cc2Cl)c(N)c1-c1cccc(F)c1 | 164
